# EP0363041A1 (priority 1988, dated 1990)
# “And” between values parts separate entries of the source, which are not always exact repeats. Identical values can stand only once. Like-named read-outs stand apart in the source and are kept apart here.
# Tests used:
# Format in all cases: binding, mouse
# [1] = system: MO-3
# [2] = system: MO-4
# [3] = system: MO-6
# [4] = system: MO-5
# [5] = system: "antibody carrier" (monoclonal antibody of MO-3 strain); experiment: Latex agglutination assay: competition with "normorphine carrier" for "antibody carrier"
# [6] = system: MO-2
Structure (SMILES),"reactivity ratio with morphine, MO-3 [1]","reactivity ratio with morphine, MO-4 [2]","reactivity ratio with morphine, MO-6 [3]","reactivity ratio with morphine, MO-5 [4]","time at which polystyrene latex particles were observed to be agglutinated ([5]; 0.3 ppm in urine of healthy men, normorphine carrier of Example 5, 0 ppm gives 16 seconds) [s]","time at which polystyrene latex particles were observed to be agglutinated ([5]; 0.3 ppm in urine of healthy men, normorphine carrier of Example 6, 0 ppm gives 13 seconds) [s]","reactivity ratio with morphine, MO-2 [6]",time at which polystyrene latex particles were observed to be agglutinated [5]
"CCOc1ccc2c3c1O[C@H]1[C@@H](O)C=C[C@H]4[C@@H](C2)N(C)CC[C@@]341 [Ethylmorphine, ethylmorphine]",< 0.01,< 0.01,< 0.1,< 0.01,16,13,< 1.0,
"CN1CC[C@]23c4c5ccc(O)c4O[C@H]2[C@@H](O)C=C[C@H]3[C@H]1C5 [Morphine, morphine]",100,100,100,100,,,100,
"CN1CC[C@]23c4c5ccc(O[C@@H]6O[C@H](C(=O)O)[C@@H](O)[C@H](O)[C@H]6O)c4O[C@H]2[C@@H](O)C=C[C@H]3[C@H]1C5 [M - 3 - G, morphine-3-glucronide]",0.1,0.2,0.3,0.5,,,2.0,
"COC(=O)[C@H]1[C@@H](OC(=O)c2ccccc2)C[C@@H]2CC[C@H]1N2C [Cocaine, cocaine]",< 0.001,< 0.001,< 0.1,< 0.001,,,< 1.0,16 s and 13 s
"CCC(=O)C(CC(C)N(C)C)(c1ccccc1)c1ccccc1 (centres unmarked) [Methadone, methadone]",< 0.001,< 0.001,< 0.1,< 0.001,,,< 1.0,
"CN1CC[C@]23c4c5ccc(O)c4O[C@H]2[C@@H](O[C@@H]2O[C@H](C(=O)O)[C@@H](O)[C@H](O)[C@H]2O)C=C[C@H]3[C@H]1C5 [M - 6 - G, morphine-6-glucronide]",0.6,0.9,1.0,0.9,,,440,
"COc1ccc2c3c1O[C@H]1[C@@H](O)C=C[C@H]4[C@@H](C2)N(C)CC[C@@]341 [Codeine, codeine]",< 0.1,< 0.1,< 0.1,< 0.1,,,< 1.0,
